The values below come from patent US20240117334A1, “FACTOR B PROTEASES” (Vertex Pharmaceuticals Incorporated, priority 2021, published 2024).

Holding throughout (type): biochemical
In data set [1] the test system is human Factor B depleted sera with Factor B, rabbit red blood cells. Nature of the data set: Enhanced AP RBC hemolysis assay (Factor B depleted sera with Factor B spiked back). Set-up: unit of the concentration uncertain. As for the experimental part:
(§1) Percent lysis was calculated using the following formula: [(OD415 of sample−OD415 EDTA negative control)/(OD415 saline positive control-OD415 EDTA)*100 ] (Table 17A and Table 17B). IC50s were calculated by nonlinear regression (Prism 9, log(inhibitor,bv) vs. response-4 parameter variable slope model) (Table 18A and Table 18B).

In data set [2] the test system is 20% Normal Human Serum, rabbit red blood cells. Kind of data set: Standard Alternative Pathway (AP) RBC hemolysis assay. Set-up: unit of the concentration uncertain. As for the experimental part: as §1
For data set [3], the target named is T1, Human Factor B (Homo sapiens, UniProt P00751). Kind of data set: Mass spectrometry identification of Factor B cleavage sites. The method, then: FIG. 9 depicts mass spectrometry (MS) data identifying the cleavage site at 234 Arg within the QQKR/KIV (SEQ ID NO: 9) cleavage site of Factor B by KLK5, and identifying the cleavage site at ^221Asp within the EGVDAE (SEQ ID NO: 13) cleavage site of Factor B by the chymase-based engineered protease C22S/A226R. Briefly, human Factor B (Comptech) was incubated at 2 μM with different concentration of Kallikrein 5 (KLK5, R&D Systems) or the chymase-based engineered protease C22S/A226R at 10 nM or 100 pM for 10 minutes to 1 hour at 37° C. in 20 mM Tris pH 8 buffer with 16-0 or 18-0 water. The reaction was quenched with 20 μM of inhibitor FFR-CMK for 30 minutes at room temperature. Half of the sample was further treated with Rapidgest/chymotrypsin and adjusted to pH 3 by the addition of […] 1% TFA. TCEP (100 mM final concentration) was then added to reduce disulfides for 30 minutes at 37° C. […] of each sample was bound to a Ziptip (Millipore) and eluted with […] 80% ACN-0.1% TFA. After drying in a Speedvac, the samples were re-dissolved in […] of 30% ACN-0.05% TFA. 0.35 mL of the sample was loaded with 0.45 mL of CHCA matrix (10 mg/mL) onto an OptiPlate, and analyzed by MALDI-MS (ABI 4700) in both linear (m/z 2-22k) and reflector (m/z 1500-5400) mode. The tandem MS was carried out on peptides of interest when possible. Two large peptide fragments were detected at […] and 59 kDa. In summary, 100 pM KLK5 cleaves at 1 of 38 Arg in a 10 minute reaction and in 4 out of 38 Arg in a 60 minute reaction (Arg175, Arg193, Arg730 and Arg739). At 10 nM, cleavage was detected in […] in 10 and 60 minute reactions (Arg50, Arg74, Arg94, Arg175, Arg182, Arg193, Arg202, Arg203, Arg259, Arg381, Arg415, Arg658, Arg679, Arg708, Arg710, Arg730, Arg739). The earliest cleavage event was at Arg 730.
T1 sequence (P00751 26-764): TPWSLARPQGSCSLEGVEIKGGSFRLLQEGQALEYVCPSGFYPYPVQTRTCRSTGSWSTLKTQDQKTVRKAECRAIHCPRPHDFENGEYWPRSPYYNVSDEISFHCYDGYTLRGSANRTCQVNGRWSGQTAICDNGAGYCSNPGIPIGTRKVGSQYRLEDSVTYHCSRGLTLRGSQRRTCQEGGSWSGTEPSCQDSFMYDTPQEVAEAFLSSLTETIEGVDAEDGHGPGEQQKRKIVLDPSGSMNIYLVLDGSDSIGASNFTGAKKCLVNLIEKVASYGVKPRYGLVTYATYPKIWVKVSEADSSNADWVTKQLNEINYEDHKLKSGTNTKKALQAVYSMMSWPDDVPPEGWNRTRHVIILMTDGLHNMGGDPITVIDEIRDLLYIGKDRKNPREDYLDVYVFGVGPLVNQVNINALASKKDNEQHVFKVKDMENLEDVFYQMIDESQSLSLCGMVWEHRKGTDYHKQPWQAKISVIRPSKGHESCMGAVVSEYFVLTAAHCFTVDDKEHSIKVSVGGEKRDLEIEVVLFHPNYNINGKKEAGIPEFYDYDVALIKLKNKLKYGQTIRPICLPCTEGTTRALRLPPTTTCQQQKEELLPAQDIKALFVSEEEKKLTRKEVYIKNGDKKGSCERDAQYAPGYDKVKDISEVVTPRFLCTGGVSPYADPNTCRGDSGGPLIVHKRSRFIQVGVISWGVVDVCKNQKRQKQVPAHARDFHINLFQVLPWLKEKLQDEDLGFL
The reconstructed ion chromatograms shown in FIG. 9 are of reaction products from Kallikrein-5 (“KLK”), the chymase-based engineered protease C22S/A226R (“chymase-based”), and plasma derived-Factor B (“Fb control”). […] In contrast, KLK5 cleaves Factor B at ^234 Arg (peak at 4.69 minutes, MW 61437).

Data set [4] deals with T1, Human Factor B. Nature of the data set: Factor B cleavage by KLK5, Factor B ELISA. As to conditions: 4 μM Factor B, 1 hour at 37° C., two stocks. The method, then: FIG. 7B depicts a graph showing Factor B cleavage with KLK5 and a chymase-based engineered protease C22S/F173Y/D175N/A226R. Briefly, A digestion reaction is prepared with 4.0 uM of Human Factor B (Complement Technologies) in 20 μL buffer (50 mM Tris pH 7.4/50 mM NaCl/0.01% Tween 20). Different concentrations of KLK5 (400, 200, 100, 50, 25, 12.5, 6.25, 3.125, 1.56, 0.78, and 0.39 with a control at 0.0 nM) are added to 4 μM of factor B and incubated for 1 hour at 37° C. After digestion, 15 μL of the reaction is transferred to a 96 well plate with 1.5 μL of 0.2N HCL. After quenching, the reactions are prepared factor B ELISA.
A Factor B standard curve is made with 800, 533.3, 355.5, 237.0, 158.0, 105.3, 70.2, 46.8, 31.2, 20.8, 0.0 pM in 1% BSA-PBST. A 384 well plate was coated with the monoclonal antibody against human Factor Ba (#A225, Quidel) at 2 μg/mL in carbonate buffer (25 μL/well). […]
The biotinylated monoclonal antibody against human Factor Bb (Quidel) was then added at 0.125 μg/ml to detect the bound Factor B. Streptavidin-HRP was then diluted at 1:200 in blocking buffer (25 μL/well) and the plate was agitated for 30 minutes at room temperature. The plate was developed with ELISABright, (50 μL/well) for 1 minute at room temperature and read in the EnVision plate reader. […]
(In general: An ELISA detects its analyte on a solid surface through an enzyme-linked reagent.)

Data set [5] deals with Human Factor B digests in human Factor B Depleted Serum, rabbit red blood cells. Kind of data set: Hemolysis assay with Factor B digests (KLK5 and chymase-based protease). As to conditions: 4 μM Factor B digested 1 hour at 37° C., 15% serum. As for the experimental part:
FIG. 7A depicts a graph showing hemolysis inhibition by KLK5 and compared with a chymase-based engineered protease C22S/F173Y/D175N/A226R. All references in this Example to engineered proteases are depicted in chymotrypsin numbering. The chymotrypsin numbering key for the modified protease domains of engineered proteases are found in Tables 2, 4, and 6 for uPA, MTSP-1, and chymase, respectively. Briefly, a digestion reaction was prepared with 4.0 μM of Human Factor B (Complement Technologies) in 20 μL buffer (50 mM Tris pH 7.4/50 mM NaCl/0.01% Tween 20). Different concentration of the KLK5 protease or the chymase-based engineered protease C22S/F173Y/D175N/A226R (400, 200, 100, 50, 25, 12.5, 6.25, 3.125, 1.56, 0.78, and 0.39 with a control at 0.0 nM) were added to 4 μM of Factor B and incubated for 1 hour at 37° C. After digestion, 6 μL of the reaction was evaluated in a hemolysis assay.
The Factor B digestion reactions were diluted in 20 μL of GVB (Complement Technologies), 10 mM MgCl2 and 8 mM EGTA (GVB/Mg/EGTA). 45 μL of human Factor B Depleted Serum (Complement Technologies) was then added to 5 μL of human Factor B digests to obtain a final volume of 90% serum. In parallel, 50 μL of rabbit red blood cells (Colorado Serum Co.) were diluted into 950 μL of GVB/Mg/EGTA and mixed gently. […] The plate absorbance was read at 415 nm with a spectrophotometer and the EC50 was calculated.

Setting [6] is: concentration 0.33 (unit uncertain).
Setting [7] is: concentration 1 (unit uncertain).
Setting [8] is: concentration 3 (unit uncertain).
The mark [9] stands for this setting: concentration 10 (unit uncertain).

`CCO[C@H]1CCN(Cc2c(OC)cc(C)c3[nH]ccc23)[C@H](c2ccc(C(=O)O)cc2)C1` [LNP023]: the “% Hemolysis” value in data set [1] (setting [6]) was 102.50%; in data set [1] (setting [7]) it was 108.48%; in data set [1] (setting [8]) it was 33.94%; in data set [1] (setting [9]), 0%; in data set [2] (setting [6]) it was 0%; in data set [2] (setting [7]), 1.16%. Moreover, the “% Hemolysis” value in data set [2] (setting [8]) and in data set [2] (setting [9]) was 0% throughout.
Consider “KLK5: Kallikrein-related peptidase 5 protease (R&D Systems)”, for which the earliest cleavage event entry in data set [3] is “Arg 730”. Further, the “remaining intact Factor B (reconstructed ion chromatogram)” value in data set [3] is “No remaining intact Factor B”. For the same compound, the “number of Arg of Factor B cleaved” value in data set [3] (100 pM, 10 minute reaction) is 1 of 38; in data set [3] (100 pM, 60 minute reaction), 4 out of 38; in data set [3] (10 nM, 10 and 60 minute reactions), 18 of 38. Moreover, the “cleavage of Factor B (ELISA)” value in data set [4] was “effective in cleavage Factor B”. Moreover, the inhibition of hemolysis result in data set [5] is “effective in inhibition of hemolysis”.
